Broadly, the IC50 is the concentration that inhibits the measured activity by half. As usually defined, the inhibition is the drop in the measured response relative to a control, in per cent.

Assay [1] concerns the target interaction between PB1 and PA (Influenza A virus, UniProt P03433). Nature of the assay: biochemical. It counts as binding. The note with it: for IC50: calculated from inhibition at maximum obtainable concentration where solubility too low, read-out: IC50 [μM] (ELISA); for Active in ELISA: prescreening.
The test system of assay [2] is influenza virus (A/WSN/33). The assay can be described thus: plaque reduction assay, influenza virus in MDCK cells. It counts as cell-based. For orientation: Plaques are areas of infected cells; plaque reduction assays count them against a control.
In the next assay the test system is RSV (Long strain). The assay can be described thus: RSV induced cell death reduction in HEp-2 cells. It counts as cell-based, respiratory syncytial virus. The note with it: for RSV activity, Maximum inhibition (in words): serial dilution 100 to 0.14 μM, 72 h.
The test system of another assay is HA-tagged PA from FluB. The assay can be described thus: competitive ELISA, PB1 peptide / PA of FluB. It counts as binding, influenza B virus. The note with it: competitor peptides 0.048 to 3000 nM; […]; standard deviation in parenthesis; * highest concentration used.

Read-outs that look alike come from different tables or passages of the source.

For the molecule `O=[N+]([O-])c1ccc(Sc2ccc(F)cc2)c2nonc12` [PKE079, 4-[(4-fluorophenyl)thio]-7-nitro-2,1,3-benzoxadiazole], in assay [1], the half-inhibitory concentration (IC50) was 125 µM and the “Active in ELISA” value is recorded as “Yes”. In addition, the “inhibition of the replication of influenza virus, particularly influenza A (summary in words)” value in assay [2] is given as “effectively inhibited”. In addition, in the assay on RSV (Long strain), the “inhibition of RSV replication (summary in words)” value was “effective”. Besides, it took 7 µM to reach half-maximal inhibition with RSV (Long strain) (human respiratory syncytial virus, HEp-2) (IC50). Besides, the inhibition at 11 µM with RSV (Long strain) (human respiratory syncytial virus, HEp-2, at 11 μM, read-out: RSV activity, Maximum inhibition) is 53%.

Take `O=[N+]([O-])c1ccc(SCc2ccccc2)c2nonc12` [PKE107, 4-nitro-7-(phenylmethylsulfanyl)-2,1,3-benzoxadiazole]: in assay [1], the IC50 was 125 µM and the “Active in ELISA” value is recorded as “Yes”. For the same molecule, in assay [2], the “inhibition of the replication of influenza virus, particularly influenza A (summary in words)” value is reported as “effectively inhibited”. For the same molecule, the “RSV activity, Maximum inhibition (in words)” value in the assay with RSV (Long strain) was “inactive”.

In the case of `O=[N+]([O-])c1ccc(S(=O)(=O)Cc2ccccc2)c2nonc12` [PKE108, 4-nitro-7-(phenylmethylsulfonyl)-2,1,3-benzoxadiazole], in assay [1], the concentration for half-maximal inhibition (IC50) is 500 µM and the “Active in ELISA” value is listed as “Yes”. Besides, in assay [2], the “inhibition of the replication of influenza virus, particularly influenza A (summary in words)” value is “effectively inhibited”. For the same molecule, in the assay on RSV (Long strain), the “RSV activity, Maximum inhibition (in words)” value is “inactive”.

Turning to `O=[N+]([O-])c1ccc(Sc2ncnc3c2ncn3C2OC(CO)C(O)C2O)c2nonc12` (stereo not drawn) [PKE137, 2-(hydroxymethyl)-5-[6-[(4-nitro-2,1,3-benzoxadiazol-7-yl)sulfanyl]purin-9-yl]oxolane-3,4-diol], in assay [1], the IC50 was 200 µM and the “Active in ELISA” value is given as “Yes”. The “inhibition of the replication of influenza virus, particularly influenza A (summary in words)” value in assay [2] is given as “effectively inhibited”. The “RSV activity, Maximum inhibition (in words)” value with RSV (Long strain) was “inactive”.

For `Nc1nc(Sc2ccc([N+](=O)[O-])c3nonc23)c2ncn(C3OC(CO)C(O)C3O)c2n1` (stereo not drawn) [PKE138, 2-[2-amino-6-[(4-nitro-2,1,3-benzoxadiazol-7-yl)sulfanyl]purin-9-yl]-5-(hydroxymethyl)oxolane-3,4-diol], in assay [1], the IC50 was 250 µM and the “Active in ELISA” value is reported as “Yes”. In assay [2], the “inhibition of the replication of influenza virus, particularly influenza A (summary in words)” value is on record as “effectively inhibited”. For the same molecule, the “RSV activity, Maximum inhibition (in words)” value in the assay on RSV (Long strain) was “inactive”.

For MDVNPFLLFLKVPAQ [PB11-15 AT5F], the half-inhibitory concentration (IC50) in the assay on HA-tagged PA from FluB is 750 nM; in the assay with HA-tagged PA of FluA (read-out: IC50 (nM) PA (FluA)), 2.84 nM.

Turning to MDVNPTLLFLK [Compound 1-11], the concentration for half-maximal inhibition (IC50) in the assay with HA-tagged PA of FluA (read-out: IC50 (nM) of FluA-derived PB1 peptides (truncations)) is 900 nM.

With MDVNPTLLFLKVPAQ [PB11-15 A], the IC50 in the assay on HA-tagged PA from FluB is greater than 3000 nM.

For the molecule MDVNPWLLFLKVPAQ [PB11-15 AT6W], the concentration for half-maximal inhibition (IC50) with HA-tagged PA from FluB amounted to 628 nM; in the assay on HA-tagged PA of FluA (read-out: IC50 (nM) PA (FluA)), 3.4 nM.

Turning to MDVNPYLLFLKVPAQ [PB11-15 AT5Y], the IC50 turned out to be 107 nM with HA-tagged PA from FluB and 21.6 nM in the assay with HA-tagged PA of FluA (read-out: IC50 (nM) PA (FluA)).
